Results as given in paper PMC12186255, “Discovery and Characterization of Small Molecule Inhibitors Targeting Exonuclease 1 for Homologous Recombination-Deficient Cancer Therapy” (ACS Chemical Biology, 2025).

What was measured:
MCF7 (B3) = experiment: Cell line drug profiling, CellTiter Glo; type: cell-based; details: Homo sapiens, Breast, 72 h
Procedure: (§1) We tested the cytotoxicity of representative compounds from the seven EXO1i scaffolds against a subset of the NCI-60 cell line panel along with three additional pancreatic cell lines (FG, AsPC1, and CaPan2). In general, cells were seeded in 384-well tissue culture-treated plates overnight and treated with various concentrations of each hit compound (a serial 3-fold dilution from 50 μM for all tested hits). Each concentration was performed in duplicate. Cell viability was then measured by CellTiter Glo (Promega) after 72 h of treatment.

MCF7 = experiment: Cell line drug profiling, CellTiter Glo; type: cell-based; details: Homo sapiens; MCF7, Breast, 72 h
Procedure: as §1

U251 = experiment: Cell line drug profiling, CellTiter Glo; type: cell-based; details: Homo sapiens, U-251; U251, Central Nervous System, 72 h
Procedure: as §1

HS 578T = experiment: Cell line drug profiling, CellTiter Glo; type: cell-based; details: Homo sapiens, Breast, 72 h
Procedure: as §1

CCRF-CEM = experiment: Cell line drug profiling, CellTiter Glo; type: cell-based; details: Homo sapiens, Leukemia, 72 h
Procedure: as §1

FG = experiment: Cell line drug profiling, CellTiter Glo; type: cell-based; details: Homo sapiens, Pancreatic, 72 h
Procedure: as §1

ACHN = experiment: Cell line drug profiling, CellTiter Glo; type: cell-based; details: Homo sapiens, Kidney, 72 h
Procedure: as §1

H23 = experiment: Cell line drug profiling, CellTiter Glo; type: cell-based; details: Homo sapiens, NCI-H23; H23, Lung, 72 h
Procedure: as §1

PC3 = experiment: Cell line drug profiling, CellTiter Glo; type: cell-based; details: Homo sapiens, PC-3; PC3, Prostate, 72 h
Procedure: as §1

T-47D = experiment: Cell line drug profiling, CellTiter Glo; type: cell-based; details: Homo sapiens, T47D, Breast, 72 h
Procedure: as §1

SF-268 = experiment: Cell line drug profiling, CellTiter Glo; type: cell-based; details: Homo sapiens; SF-268, Central Nervous System, 72 h
Procedure: as §1

MDA-MB-231 = experiment: Cell line drug profiling, CellTiter Glo; type: cell-based; details: Homo sapiens; MDA-MB-231, Breast, 72 h
Procedure: as §1

AsPC1 = experiment: Cell line drug profiling, CellTiter Glo; type: cell-based; details: Homo sapiens; AsPC1, Pancreatic, 72 h
Procedure: as §1

SKOV-3 = experiment: Cell line drug profiling, CellTiter Glo; type: cell-based; details: Homo sapiens, SK-OV-3; SKOV-3, Ovarian, 72 h
Procedure: as §1

OVCAR-4 = experiment: Cell line drug profiling, CellTiter Glo; type: cell-based; details: Homo sapiens; OVCAR-4, Ovarian, 72 h
Procedure: as §1

DU145 (B3) = experiment: Cell line drug profiling, CellTiter Glo; type: cell-based; details: Homo sapiens, DU-145, Prostate, 72 h
Procedure: as §1

HL-60(TB) = experiment: Cell line drug profiling, CellTiter Glo; type: cell-based; details: Homo sapiens, Leukemia, 72 h
Procedure: as §1

NCI/ADR-RES = experiment: Cell line drug profiling, CellTiter Glo; type: cell-based; details: Homo sapiens, Ovarian, 72 h
Procedure: as §1

DU145 = experiment: Cell line drug profiling, CellTiter Glo; type: cell-based; details: Homo sapiens, DU-145; DU145, Prostate, 72 h
Procedure: as §1

OVCAR-8 = experiment: Cell line drug profiling, CellTiter Glo; type: cell-based; details: Homo sapiens; OVCAR-8, Ovarian, 72 h
Procedure: as §1

OVCAR-3 = experiment: Cell line drug profiling, CellTiter Glo; type: cell-based; details: Homo sapiens; OVCAR-3, Ovarian, 72 h
Procedure: as §1

UACC-257 = experiment: Cell line drug profiling, CellTiter Glo; type: cell-based; details: Homo sapiens; UACC-257, Melanoma, 72 h
Procedure: as §1

SNB-19 = experiment: Cell line drug profiling, CellTiter Glo; type: cell-based; details: Homo sapiens; SNB-19, Central Nervous System, 72 h
Procedure: as §1

SK-MEL-28 = experiment: Cell line drug profiling, CellTiter Glo; type: cell-based; details: Homo sapiens; SK-MEL-28, Melanoma, 72 h
Procedure: as §1

OVCAR-5 = experiment: Cell line drug profiling, CellTiter Glo; type: cell-based; details: Homo sapiens; OVCAR-5, Ovarian, 72 h
Procedure: as §1

UO-31 = experiment: Cell line drug profiling, CellTiter Glo; type: cell-based; details: Homo sapiens; UO-31, Kidney, 72 h
Procedure: as §1

CaPan2 = experiment: Cell line drug profiling, CellTiter Glo; type: cell-based; details: Homo sapiens, Capan-2; CaPan2, Pancreatic, 72 h
Procedure: as §1

IGR-OV1 = experiment: Cell line drug profiling, CellTiter Glo; type: cell-based; details: Homo sapiens, IGROV-1; IGR-OV1, Ovarian, 72 h
Procedure: as §1

BT549 = experiment: Cell line drug profiling, CellTiter Glo; type: cell-based; details: Homo sapiens, BT-549; BT549, Breast, 72 h
Procedure: as §1

SF-295 = experiment: Cell line drug profiling, CellTiter Glo; type: cell-based, human
Procedure: as §1

MDA-MB-468 = experiment: Cell line drug profiling, CellTiter Glo; type: cell-based, human
Procedure: as §1

FEN1 = molecular target: T1, FEN1 (Homo sapiens, UniProt P39748); experiment: Analogous FRET-based counter screen with purified FEN1; type: biochemical; details: FRET-based assay, maximum inhibitor concentration 100 μM
T1 construct: made in house
T1 sequence (P39748 whole entry): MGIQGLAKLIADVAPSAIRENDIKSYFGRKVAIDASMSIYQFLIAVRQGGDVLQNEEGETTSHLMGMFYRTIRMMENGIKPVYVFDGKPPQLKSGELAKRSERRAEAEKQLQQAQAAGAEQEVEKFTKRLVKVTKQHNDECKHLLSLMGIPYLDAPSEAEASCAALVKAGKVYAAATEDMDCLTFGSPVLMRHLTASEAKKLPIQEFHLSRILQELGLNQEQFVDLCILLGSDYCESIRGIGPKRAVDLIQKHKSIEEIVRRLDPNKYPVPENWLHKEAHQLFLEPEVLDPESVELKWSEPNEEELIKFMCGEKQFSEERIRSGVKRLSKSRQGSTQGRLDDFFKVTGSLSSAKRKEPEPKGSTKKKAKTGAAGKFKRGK
Procedure: Data were normalized by subtracting the relative fluorescence unit (RFU) of the blank sample from that of each EXO1-containing reaction. The relative activity of individual compounds was subsequently calculated by setting the corrected RFU of EXO1 with DMSO as 100% and comparing the corrected RFU for each condition to the DMSO value. Each assay was performed by sequentially adding experimental compounds, the EXO1 enzyme, and the DNA substrate to minimize starting differences. […] Following IC50 screening, an analogous FRET-based assay was performed using purified FEN1 to assess the EXO1 specificity of each compound.
For subsequent hit confirmation, 84 compounds from the primary screen were picked from our internal stock and subjected to a dose-dependent response assay starting at 100 μM with 3-fold serial dilution. To analyze the data from the dose-dependent response assay, IC50 values for each hit were calculated through nonlinear regression analysis using GraphPad Prism 10 (GraphPad Software, Inc.). […] Subsequently, a counter screen was performed to eliminate potential false-positive hits. To accomplish this, we established an analogous FRET assay using the purified FEN1 enzyme in place of EXO1.

EXO1 [1] = molecular target: T2, EXO1 (Homo sapiens, UniProt Q9UQ84); experiment: FRET-based EXO1 exonuclease activity assay, dose-response; type: biochemical; details: nick substrate, 30 min, 37 °C
T2 construct: made in house
T2 sequence (Q9UQ84 1-846): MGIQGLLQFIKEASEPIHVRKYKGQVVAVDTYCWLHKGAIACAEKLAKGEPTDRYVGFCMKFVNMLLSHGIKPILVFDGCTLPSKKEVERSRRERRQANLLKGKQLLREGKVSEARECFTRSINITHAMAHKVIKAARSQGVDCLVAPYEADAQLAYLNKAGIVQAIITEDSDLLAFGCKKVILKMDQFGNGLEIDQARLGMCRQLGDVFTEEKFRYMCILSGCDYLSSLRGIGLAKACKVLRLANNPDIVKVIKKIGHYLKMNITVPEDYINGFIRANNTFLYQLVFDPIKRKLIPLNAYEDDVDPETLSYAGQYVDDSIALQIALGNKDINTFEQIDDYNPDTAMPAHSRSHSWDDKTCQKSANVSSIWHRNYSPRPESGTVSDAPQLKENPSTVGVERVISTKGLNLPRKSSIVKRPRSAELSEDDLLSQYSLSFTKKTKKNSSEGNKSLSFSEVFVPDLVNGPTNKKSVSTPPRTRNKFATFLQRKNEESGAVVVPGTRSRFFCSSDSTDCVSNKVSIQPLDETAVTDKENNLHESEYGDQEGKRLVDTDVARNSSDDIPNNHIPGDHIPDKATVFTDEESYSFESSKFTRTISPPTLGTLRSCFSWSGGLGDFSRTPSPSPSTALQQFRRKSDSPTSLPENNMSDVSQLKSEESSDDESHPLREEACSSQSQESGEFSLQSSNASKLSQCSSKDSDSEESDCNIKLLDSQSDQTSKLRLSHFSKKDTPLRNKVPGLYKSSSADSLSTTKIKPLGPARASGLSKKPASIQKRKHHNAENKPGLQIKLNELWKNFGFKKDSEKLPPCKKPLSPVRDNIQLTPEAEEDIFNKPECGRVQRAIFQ
Source text: We developed a cell-free in vitro assay to detect EXO1 exonuclease activity based on FRET quenching. […] A ZEN quencher and IowaBlackFQ quencher were attached to the downstream oligo internally and at the 3' end, respectively, to suppress FAM signal. Two quenchers were used to provide better quenching effects than did a single quencher, as recommended by the manufacturer (IDT). The sequence of the nick substrate was as follows: up-primer: [NT]; template: [NT]; and probe: […] . When EXO1 cleaved the nick substrate, the FAM-labeled nucleotide was untethered from the substrate and yielded a bright green fluorescence. […] Fluorescent signals were measured after a 30 min incubation. […] Data were normalized by subtracting the relative fluorescence unit (RFU) of the blank sample from that of each EXO1-containing reaction. The relative activity of individual compounds was subsequently calculated by setting the corrected RFU of EXO1 with DMSO as 100% and comparing the corrected RFU for each condition to the DMSO value. Each assay was performed by sequentially adding experimental compounds, the EXO1 enzyme, and the DNA substrate to minimize starting differences.

MDA-MB-231 cells = experiment: Gel-based phospho-RPA end resection assay; type: cell-based, human; details: inhibitor overnight then 2 μM CPT 2 h, C5 10 μM
Procedure: The levels of RPA32 and phosphorylated RPA32 (S33) were analyzed by Western blotting using antibodies against RPA32 and phosphorylated RPA32 (S33). The total level of tubulin was used as a control. (b) Ratio of P-RPA:RPA levels calculated from panel a. […] U2OS cells carrying a GFP reporter for HR were infected with adenovirus expressing the I-SceI restriction enzyme. […] U2OS cells carrying a GFP reporter for HR were infected with adenovirus expressing the I-SceI restriction enzyme. […] For panels c and d, after 48 h, the cells were harvested, and the GFP-positive cells were analyzed by flow cytometry. Values are the mean ± S.D. of three independent experiments.
The treated cells were then lysed in the SDS-PAGE sample buffer, and the lysate was separated by SDS-PAGE prior to immobilization on a nitrocellulose membrane and Western blotting. Antibodies against unphosphorylated RPA, S33-P-RPA2, and tubulin were subsequently assayed according to the manufacturer’s recommendations. The ratio of P-RPA/RPA levels were quantified via ImageJ.

EXO1 [2] = molecular target: T2, EXO1; experiment: Thermal shift assay; type: binding; details: maximum shift in Tm of EXO1 vs DMSO, increasing inhibitor concentrations
Procedure: To assess for changes in the thermal stability of EXO1 protein in response to treatment with candidate small molecule inhibitors or DMSO (vehicle control), the thermal shift assay (Applied Biosystems Protein Thermal Shift Dye Kit, Cat. #4461146) was utilized. The protein melt reaction mix consisted of freshly prepared 10× thermal shift dye, purified EXO1 enzyme (1 μg/uL), thermal shift buffer, DMSO or inhibitors, and sterilized Milli-Q water. A drug-free supermix was premade and dispensed in 96-well PCR plates followed by the addition of DMSO or inhibitors with increasing concentration. The reaction plate was heated from 10 to 98 °C at a rate of 0.5° per 10 s cycle, and the fluorescence intensity of individual wells was measured at 490/530 nm using a BioRad CFX96 Touch Real-Time PCR System. The fluorescence measurements of three technical replicates per treatment condition were then averaged to calculate melting temperature shift (ΔT m) as a readout for compound binding affinity.

Work on O=C(Nc1ccc(N2CCC(Cc3ccccc3)CC2)cc1C(=O)O)c1ccccc1Cl [F685] yielded an IC50 (MCF7 (B3)) of 37.3 µM, an IC50 (MCF7) of 43.5 µM and an IC50 (U251) of 14.2 µM. For the same compound, the IC50 (HS 578T) was 22.9 µM, the IC50 (CCRF-CEM) was 14.8 µM and the IC50 (FG) was > 50 µM. The IC50 (ACHN) was 19.9 µM, the IC50 (H23) was 23.5 µM and the IC50 (PC3) was 19.7 µM. The IC50 (T-47D) was 16.9 µM, the IC50 (SF-268) was 49.3 µM and the IC50 (MDA-MB-231) was 31.6 µM. The IC50 (AsPC1) was 43.3 µM, the IC50 (SKOV-3) was 24.4 µM and the IC50 (OVCAR-4) was 21.4 µM. For the same compound, the IC50 (DU145 (B3)) was 14.1 µM, the IC50 (HL-60(TB)) was 17.5 µM and the IC50 (NCI/ADR-RES) was 17.7 µM. For the same compound, the IC50 (DU145) was 12.6 µM, the IC50 (OVCAR-8) was 18.8 µM and the IC50 (OVCAR-3) was 5.73 µM. It also gave an IC50 (UACC-257) of 21.5 µM, an IC50 (SNB-19) of 16.6 µM and an IC50 (SK-MEL-28) of 47.1 µM. For the same compound, the IC50 (OVCAR-5) was 19.4 µM, the IC50 (UO-31) was 8.27 µM and the IC50 (CaPan2) was 44.7 µM. For the same compound, the IC50 (IGR-OV1) was 18.1 µM, the IC50 (BT549) was 17.9 µM and the IC50 (SF-295; Homo sapiens, SF-295, 72 h) was 28.2 µM. For the same compound, the IC50 (MDA-MB-468; Homo sapiens, MDA-MB-468, 72 h) was 46.4 µM and the IC50 (FEN1) was > 100 µM.

For O=S(=O)(Nc1nc2n(n1)C(c1ccccc1)C=C(c1ccc(Cl)cc1)N2)c1ccc(Cl)cc1 (stereo not shown) [D413], the IC50 (FEN1) was > 100 µM.

With Cc1c(Cl)cccc1NCc1cc(=O)n2nc(-c3ccc(C(C)(C)C)cc3)nc2[nH]1 [D351] the IC50 (EXO1 [1]) was 8 µM and the IC50 (FEN1) was > 100 µM.

With O=C(O)c1c[nH]c2c([N+](=O)[O-])cccc2c1=O [C5, reference compound] the “CPT-induced P-RPA levels (DNA end resection)” value (MDA-MB-231 cells) was “significant reduction”.

O=S(=O)(Nc1nc2n(n1)C(c1ccc(F)cc1)C=C(c1ccccc1)N2)c1ccc(Cl)cc1 (stereo not shown) [D413-0213] gave an IC50 (SF-295; SF-295, Central Nervous System, 72 h) of 40 µM and an IC50 (MDA-MB-468; MDA-MB-468, Breast, 72 h) of 20 µM.

With Cc1ccccc1C(=O)Nc1ccc(N2CCN(c3ccccc3Cl)CC2)c(C(=O)O)c1 [G889] the ΔT m (EXO1 [2]) was ~1 °C and the IC50 (FEN1) was > 100 µM.
